Measured values taken from patent publication US9555038B2, “Heterocycle-substituted tetracyclic compounds and methods of use thereof for the treatment of viral diseases” (Merck Sharp & Dohme Corp., priority 2013, dated 2017).
Read-outs that look alike come from different tables or passages of the source.

Tests used:
HCV replicon 2B = assay: Cell-based HCV Replicon Assay A, replicon 2B
Protocol: (§1) To measure cell-based anti-HCV activity of compounds of the present invention, two complimentary assays were employed using various replicons. In the first assay (“Replicon Assay A”), replicon cells were seeded at 2000 cells/well in 384-well 384-well flat bottom tissue culture treated clear bottom plate (Corning 3707) in the presence of the test compound. Various concentrations of test compound, typically in 10 serial dilutions, were added to the assay mixture, with the starting concentration ranging from 333.3 nM to […]. The final concentration of DMSO was 0.5%. Fetal bovine serum was 5%, in the assay media. Cells were harvested on day 3 by removing media and washing the cells with a suitable wash buffer. The cells are lysed with the addition of 1× Qiagen lysis buffer (Cat #1062731). The replicon RNA level was measured using real time PCR (TaqMan® EZ RT-PCR, Applied Biosystems 403028) with the following primers and probes: […]
(§2) Cyclophilin RNA was used as endogenous control and was amplified in the same reaction as NS5B (multiplex PCR). The real-time RT-PCR reactions were run on ABI PRISM 7900HT Sequence Detection System using the following program: 50° C. for 2 minutes, 60° C. for 30 minutes, 95° C. for 5 minutes, 40 cycles of 94° C. for 20 sec, 55° C. for 1 minutes.
(§3) The amount of HCV replicon RNA per cell is quantified using a linear regression curve for a known nanogram (ng) amount of HCV replicon total RNA. This is established by plotting the Cycle Threshold values (Ct) from the Neo probe and primer set versus the log (ng) for each HCV replicon total RNA standard. The amount of HCV RNA for each replicon sample is calculated by taking the sample's Ct value, minus the line intercept, divided by the slope of the line. Similarly, the amount of Cyclophilin mRNA per cell is also quantified using a linear regression curve for a known nanogram (ng) amount of HCV replicon total RNA. Again, this is established by plotting the Cycle Threshold values (Ct) from the Cyclophilin probe and primer set versus the log (ng) for each HCV replicon total RNA standard.
(§4) Data was obtained for various compounds of the present invention using the methods described in the Example above, and is presented in the table immediately below. Data for replicons 1A, 1AY93H and 2B were obtained using Replicon Assay A and data for replicons 1AQ30D and 1B were obtained using Replicon Assay B.

HCV replicon 1A = assay: Cell-based HCV Replicon Assay A, replicon 1A
Protocol: as §1, §2, §3, §4

HCV replicon 1AY93H = assay: Cell-based HCV Replicon Assay A, replicon 1AY93H; settings: read-out: 1A Y93H IC50, replicon 1AY93H
Protocol: as §1, §2, §3, §4

SMILES | IC50 (HCV replicon 2B; read-out: 2B IC50, replicon 2B) | IC50 (HCV replicon 1A) | IC50 (HCV replicon 1AY93H) | IC50 (HCV replicon 1A; Hepatitis C virus) | IC50 (HCV replicon 2B; Hepatitis C virus, read-out: 2B IC50 (nM), replicon 2B)
COC(=O)NC(C(=O)N1CCC[C@H]1c1ncc(-c2ccc3c(c2)cc2n3C(c3cnc(C(C)C)s3)Oc3cc(-c4cnc([C@@H]5CCCN5C(=O)[C@@H](NC(=O)OC)C(C)C)[nH]4)cc(F)c3-2)[nH]1)C1CCOC(C)(C)C1 (single isomer, unassigned) [Compound 63] | 1.67 nM | 0.0483 nM | 0.254 nM | – | –
COC(=O)NC(C(=O)N1[C@@H]2C[C@@H]2C[C@H]1c1ncc(-c2ccc3c(c2)cc2n3C(c3ncc(C4CC4)s3)Oc3cc(-c4cnc([C@@H]5CCCN5C(=O)[C@@H](NC(=O)OC)C(C)C)[nH]4)cc(F)c3-2)[nH]1)C1C[C@@H](C)O[C@@H](C)C1 (single isomer, unassigned) [Compound 64] | 0.268 nM | – | 0.159 nM | 0.0012 nM | –
COC(=O)NC(C(=O)N1[C@@H]2C[C@@H]2C[C@H]1c1ncc(-c2ccc3c(c2)cc2n3C(c3cnc(C(C)C)s3)Oc3cc(-c4cnc([C@@H]5CCCN5C(=O)[C@@H](NC(=O)OC)C(C)C)[nH]4)cc(F)c3-2)[nH]1)C1CCOC(C)(C)C1 (single isomer, unassigned) [Compound 68] | – | 0.0014 nM | 0.0996 nM | – | 0.253 nM
COC(=O)NC(C(=O)N1CCC[C@H]1c1ncc(-c2ccc3c(c2)cc2n3C(c3nc(C(F)(F)F)cs3)Oc3cc(-c4cnc([C@@H]5CCCN5C(=O)[C@@H](NC(=O)OC)C(C)C)[nH]4)cc(F)c3-2)[nH]1)C1C[C@@H](C)O[C@@H](C)C1 (single isomer, unassigned) [Compound 75] | 0.491 nM | – | 0.875 nM | 0.0022 nM | –
COC(=O)NC(C(=O)N1CCC[C@H]1c1ncc(-c2ccc3c(c2)cc2n3C(c3cnc(-c4ccc(F)cc4)s3)Oc3cc(-c4cnc([C@@H]5CCCN5C(=O)[C@@H](NC(=O)OC)C(C)C)[nH]4)cc(F)c3-2)[nH]1)C1C[C@@H](C)O[C@@H](C)C1 (single isomer, unassigned) [Compound 80] | 0.047 nM | – | 0.0504 nM | 0.0015 nM | –
CCc1ncc(C2Oc3cc(-c4cnc([C@@H]5CCCN5C(=O)[C@@H](NC(=O)OC)C(C)C)[nH]4)cc(F)c3-c3cc4cc(-c5cnc([C@@H]6CCCN6C(=O)[C@@H](NC(=O)OC)C(C)C)[nH]5)ccc4n32)s1 (single isomer, unassigned) [Compound 82] | 1.1 nM | 0.0023 nM | 1.58 nM | – | –
CCc1ncc(C2Oc3cc(-c4cnc([C@@H]5CCCN5C(=O)[C@@H](NC(=O)OC)C(C)C)[nH]4)cc(F)c3-c3cc4cc(-c5cnc([C@@H]6C[C@H]7C[C@H]7N6C(=O)[C@@H](CC(=O)OC)C(C)C)[nH]5)ccc4n32)s1 (single isomer, unassigned) [Compound 84] | 0.425 nM | 0.0037 nM | 0.0708 nM | – | –
CCCc1ncc(C2Oc3cc(-c4cnc([C@@H]5CCCN5C(=O)[C@@H](NC(=O)OC)C(C)C)[nH]4)cc(F)c3-c3cc4cc(-c5cnc([C@@H]6C[C@H]7C[C@H]7N6C(=O)[C@@H](NC(=O)OC)C(C)C)[nH]5)ccc4n32)s1 (single isomer, unassigned) [Compound 91] | 0.17 nM | 0.0021 nM | 0.0537 nM | – | –
COC(=O)N[C@H](C(=O)N1CCC[C@H]1c1ncc(-c2cc(F)c3c(c2)OC(c2cnc(-c4ccc(F)cc4F)s2)n2c-3cc3cc(-c4cnc([C@@H]5CCCN5C(=O)[C@@H](NC(=O)OC)C(C)C)[nH]4)ccc32)[nH]1)C(C)C (single isomer, unassigned) [Compound 99] | 0.1 nM | 0.0016 nM | 0.26 nM | – | –
COC(=O)NC(C(=O)N1[C@@H]2C[C@@H]2C[C@H]1c1ncc(-c2ccc3c(c2)c(F)c2n3C(c3cnc(C4CC4)s3)Oc3cc(-c4cnc([C@@H]5CCCN5C(=O)[C@@H](NC(=O)OC)C(C)C)[nH]4)cc(F)c3-2)[nH]1)C1CCOC(C)(C)C1 (single isomer, unassigned) [Compound 113] | 0.176 nM | 0.002 nM | 0.678 nM | – | –
